Measured values: US20250051321A1, “TRICYCLIC DERIVATIVE AND PREPARATION METHOD THEREFOR AND APPLICATION THEREOF” (SHANGHAI JEMINCARE PHARMACEUTICAL CO., LTD., priority 2021, published 2025)
Where two headings read alike, the source gives them in different places.

System: plasma LPA 18:1 and LPA 18:2
Assay: Human plasma ex vivo assay (LPA 18:1 / 18:2 by LC-MS/MS)
Type: biochemical
Conditions: 37° C., 2 hours
Description: The collected plasma was centrifuged at 4000 rpm for 15 minutes at 4° C. The supernatant was aliquoted into a 96-well plate (25 μL per well), sealed, and frozen at −80° C. for further use.
LPA 17:0 powder was dissolved in a mixed solution of water: isopropanol: formic acid (1:1:1) to a final concentration of […]. The mixture was aliquoted and frozen at −20° C.
1 volume of formic acid was added to 1000× methanol, mixed well, and stored at 4° C. a) The 96-well plate containing frozen plasma was removed from the −80° C. freezer and thawed on ice at room temperature. b) 6 μL of 50× LPA 17:0 (internal standard) and 264 μL of 0.1% FA were added to a clean well of the 96-well plate; the final concentration of LPA 17:0 (internal standard) was 50 nM. c) 6× compound was 1:3 serially diluted to a total of 8 concentrations, and 5 μL of the compound per well was added to the 96-well plate containing plasma. The maximum final concentration of the compound was 10 μM, and the final concentration of DMSO was 0.1%. The plate was centrifuged at 300 rpm for 30 seconds. The DMSO control sample reacted for 0 hours was used as the minimum value (Min), and the DMSO control sample reacted for 2 hours was used as the maximum value (Max). […]
d) The DMSO sample reacted for 0 hours was rapidly transferred to 0.1% FA solution containing the internal standard in step b) to terminate the reaction and precipitate plasma proteins. e) The 96-well plate containing plasma and compounds was rapidly incubated in a 37° C. incubator for 2 hours. After the incubation, 6 μL of 10× LPA 17:0 and 264 μL of 0.1% FA were added to each well to terminate the reaction and precipitate plasma proteins. […]
f) All the samples were mixed well with a pipette, and centrifuged at 4000 rpm for 10 minutes at 4° C. 150 μL of the supernatant was added to a 96-well U-bottom plate (Thermo 267245), sealed with silica gel, and then loaded. The contents of LPA 18:1 and LPA 18:2 in the samples were detected by LC-MS/MS system.
LPA 18:1(or 18:2) relative content=LPA 18:1(or 18:2) peak area/LPA 17:0 peak area Percentage reduction (%) in plasma LPA18:1(or 18:2)=(Max−X)/(Max−Min)*100 Max: LPA 18:1 (or 18:2) relative content of the DMSO sample reacted for 2 hours Min: LPA 18:1 (or 18:2) relative content of the DMSO sample reacted for 0 hours X: LPA 18:1 (or 18:2) relative content of the sample after compound treatment for 2 hours The IC50 of the compounds was calculated by fitting a nonlinear regression through percentage reduction in plasma LPA 18:1 (or 18:2) and log value of compound concentration using the software GraphPad Prism 8.
Y=Bottom+(Top−Bottom)/(1+10^((Log IC50−X)*Hill Slope))

[1] = LPA 18:1, read-out: Human plasma ex vivo assay IC50 (18:1 LPA)
[2] = LPA 18:2, read-out: Human plasma ex vivo assay IC50 (18:2 LPA)

Row | IC50 [1] [nM] | IC50 [2] [nM] | Compound
1 | 372 | 366 | Cc1cc(N2CC3(CN(C(=O)C(C)(C)O)C3)C2)nc2c(N(C)c3nc(-c4ccc(F)cc4)c(C#N)s3)c3c(nc12)[C@](C)(O)CC3 (single isomer, unassigned) [Example E25-a]
2 | 323 | 331 | Cc1cc(N2CC3(CN(C(=O)C(C)(C)O)C3)C2)nc2c(N(C)c3nc(-c4ccc(F)cc4)c(C#N)s3)c3c(nc12)[C@@H](O)CC3 (single isomer, unassigned) [Example E32-a]
3 | 373 | 489 | Cc1cc(N2CC3(CN(C(=O)C(C)(C)O)C3)C2)nc2c(N(C)c3nc(-c4ccc(F)cc4)c(C#N)s3)c3c(nc12)[C@H](O)CC3 (single isomer, unassigned) [Example E32-b]
4 | 388 | 284 | CN(c1nc(-c2ccc(F)cc2)c(C#N)s1)c1c2c(nc3c(F)cc(N4CC5(CN(C(=O)C(C)(C)O)C5)C4)cc13)[C@@](C)(O)CC2 (single isomer, unassigned) [Example E35-a]
5 | 725 | 483 | CN(c1nc(-c2ccc(F)cc2)c(C#N)s1)c1c2c(nc3c(F)cc(N4CC5(CN(C(=O)[C@@H]6CCCO6)C5)C4)cc13)[C@@H](O)CC2 (single isomer, unassigned) [Example E54-a]
6 | 194 | 206 | CN(c1nc(-c2ccc(F)cc2)c(C#N)s1)c1c2c(nc3ccc(N4CCN(CC(=O)N5CC(O)C5)CC4)nc13)COC2 [Example A13]
7 | 232 | 221 | CN(c1nc(-c2ccc(F)cc2)c(C#N)s1)c1c2c(nc3ccc(N4CC5(CN(C(=O)C(C)(C)O)C5)C4)nc13)CC2 [Example C24]
8 | 287 | 314 | CN(c1nc(-c2ccc(F)cc2)c(C#N)s1)c1c2c(nc3c(F)cc(N4CC5(CN(C(=O)CN6CC[C@@H](O)C6)C5)C4)cc13)C(O)CC2 (stereo partly shown) [Example E27]
9 | 298 | 271 | CN(c1nc(-c2ccc(F)cc2)c(C#N)s1)c1c2c(nc3c(F)cc(N4CC5(CN(C(=O)CN6CC[C@H](O)C6)C5)C4)cc13)C(O)CC2 (stereo partly shown) [Example E28]
10 | 526 | 522 | CN(c1nc(-c2ccc(F)cc2)c(C#N)s1)c1c2c(nc3c(F)cc(N4CC5(CN(C(=O)C(C)(C)N)C5)C4)cc13)C(O)CC2 (stereo not shown) [Example E29]
11 | 165 | 150 | COC(C)(C)C(=O)N1CC2(C1)CN(c1cc(F)c3nc4c(c(N(C)c5nc(-c6ccc(F)cc6)c(C#N)s5)c3c1)CCC4O)C2 (stereo not shown) [Example E30]
12 | 222 | 164 | CN(c1nc(-c2ccc(F)cc2)c(C#N)s1)c1c2c(nc3c(F)cc(N4CC5(CN(CC(=O)N6CC[C@@H](O)C6)C5)C4)cc13)C(O)CC2 (stereo partly shown) [Example E31]
13 | 323 | 154 | CC(C(=O)N1CC(O)C1)N1CCN(c2cc(F)c3nc4c(c(N(C)c5nc(-c6ccc(F)cc6)c(C#N)s5)c3c2)CCC4O)CC1 (stereo not shown) [Example E33]
14 | 301 | 393 | CN(c1nc(-c2ccc(F)cc2)c(C#N)s1)c1c2c(nc3c(F)cc(N4CC5(CN(C(=O)C(C)(C)O)C5)C4)cc13)C(C)(O)CC2 (stereo not shown) [Example E35]
15 | 371 | 308 | CN(c1nc(-c2ccc(F)cc2)c(C#N)s1)c1c2c(nc3c(F)cc(N4CC5(CN(C(=O)C(C)(C)O)C5)C4)cc13)C(=O)CC2 [Example E36]
16 | 317 | 398 | CN(c1nc(-c2ccc(F)cc2)c(C#N)s1)c1c2c(nc3c(F)cc(N4CC5(CN(C(=O)CO)C5)C4)cc13)C(O)CC2 (stereo not shown) [Example E39]
17 |  | 336 | CN(c1nc(-c2ccc(F)cc2)c(C#N)s1)c1c2c(nc3c(F)cc(N4CCN(CC(=O)N5CC[C@@H](O)C5)CC4)cc13)C(O)CC2 (stereo partly shown) [Example E40]
18 | 305 | 295 | CN(c1nc(-c2ccc(F)cc2)c(C#N)s1)c1c2c(nc3c(F)cc(N4CCN(CC(=O)N5CC[C@H](O)C5)CC4)cc13)C(O)CC2 (stereo partly shown) [Example E41]
19 | 412 | 469 | CN1CCC(F)(C(=O)N2CC3(C2)CN(c2cc(F)c4nc5c(c(N(C)c6nc(-c7ccc(F)cc7)c(C#N)s6)c4c2)CCC5O)C3)C1 (stereo not shown) [Example E42]

Row | IC50 [1] [nM] | IC50 [2] [nM] | Compound
20 | 654 | 737 | CC(C)C(=O)N1CC2(C1)CN(c1cc(F)c3nc4c(c(N(C)c5nc(-c6ccc(F)cc6)c(C#N)s5)c3c1)CCC4O)C2 (stereo not shown) [Example E43]
21 | 293 | 296 | CN(c1nc(-c2ccc(F)cc2)c(C#N)s1)c1c2c(nc3c(F)cc(N4CC5(CN(CC(=O)N6CC(C)(O)C6)C5)C4)cc13)C(O)CC2 (stereo not shown) [Example E44]
22 | 584 | 356 | CN(c1nc(-c2ccc(F)cc2)c(C#N)s1)c1c2c(nc3c(F)cc(N4CC5(CCN(CC(=O)N6CC(O)C6)CC5)C4)cc13)C(O)CC2 (stereo not shown) [Example E45]
23 | 437 | 409 | CN(c1nc(-c2ccc(F)cc2)c(C#N)s1)c1c2c(nc3c(F)cc(N4CC5(CN(C(=O)CN6CC(O)C6)C5)C4)cc13)C(O)CC2 (stereo not shown) [Example E47]
24 | 740 | 671 | CN(c1nc(-c2ccc(F)cc2)c(C#N)s1)c1c2c(nc3c(F)cc(N4CCC5(CCN(CC(=O)N6CC(O)C6)CC5)C4)cc13)C(O)CC2 (stereo not shown) [Example E48]
25 | 494 | 576 | CN(c1nc(-c2ccc(F)cc2)c(C#N)s1)c1c2c(nc3c(F)cc(N4CC5(CN(C(=O)C6CC(=O)OC67CCCC7)C5)C4)cc13)C(O)CC2 (stereo not shown) [Example E49]
26 | 583 | 546 | CN(c1nc(-c2ccc(F)cc2)c(C#N)s1)c1c2c(nc3c(F)cc(N4CC5(CN(C(=O)[C@H]6CCCN6C)C5)C4)cc13)C(O)CC2 (stereo partly shown) [Example E50]
27 | 348 | 850 | CN(c1nc(-c2ccc(F)cc2)c(C#N)s1)c1c2c(nc3c(F)cc(N4CC5(CN(C(=O)[C@@H]6CCCN6C)C5)C4)cc13)C(O)CC2 (stereo partly shown) [Example E51]
28 | 670 | 423 | CN(c1nc(-c2ccc(F)cc2)c(C#N)s1)c1c2c(nc3c(F)cc(N4CC5(CN(C(=O)C6(N)CCOC6)C5)C4)cc13)C(O)CC2 (stereo not shown) [Example E52]
29 | 499 | 440 | CN(c1nc(-c2ccc(F)cc2)c(C#N)s1)c1c2c(nc3c(F)cc(N4CC5(CN(C(=O)C6CCOC6=O)C5)C4)cc13)C(O)CC2 (stereo not shown) [Example E56]
30 | 183 | 171 | CN(c1nc(-c2ccc(F)cc2)c(C#N)s1)c1c2c(nc3c(F)cc(N4CC5(CN(CC(=O)N6CC(O)C6)C5)C4)cc13)C(O)CC2 (stereo not shown) [Example E57]
31 | 263 | 271 | CN(c1nc(-c2ccc(F)cc2)c(C#N)s1)c1c2c(nc3c(F)cc(N4CC5(CN(C(=O)C6CC(O)C6)C5)C4)cc13)C(O)CC2 (stereo not shown) [Example E58]
32 | 240 | 405 | CN(c1nc(-c2ccc(F)cc2)c(C#N)s1)c1c2c(nc3c(F)cc(N4CC5(CN(C(=O)C6(C)CCOC6)C5)C4)cc13)C(O)CC2 (stereo not shown) [Example E59]
33 | 462 | 448 | CN(c1nc(-c2ccc(F)cc2)c(C#N)s1)c1c2c(nc3c(F)cc(N4CC5(CN(C(=O)C6CCCC6)C5)C4)cc13)C(O)CC2 (stereo not shown) [Example E60]
34 | 583 | 839 | CN(c1nc(-c2ccc(F)cc2)c(C#N)s1)c1c2c(nc3c(F)cc(N4CC5(CN(C(=O)[C@H]6CCCO6)C5)C4)cc13)C(O)CC2 (stereo partly shown) [Example E61]
35 | 332 | 576 | CN(c1nc(-c2ccc(F)cc2)c(C#N)s1)c1c2c(nc3c(F)cc(N4CC5(CN(C(=O)C6CCC(=O)O6)C5)C4)cc13)C(O)CC2 (stereo not shown) [Example E62]
36 | 369 | 496 | CN(c1nc(-c2ccc(F)cc2)c(C#N)s1)c1c2c(nc3c(F)cc(N4CC5(CN(C(=O)C(C)(C)O)C5)C4)nc13)C(O)CC2 (stereo not shown) [Example E65]
37 | 465 | 464 | CCc1nc2c(C)cc(N3CCN(CC(=O)N4CC(O)C4)CC3)cn2c1N(C)c1nc(-c2ccc(F)cc2)c(C#N)s1 [GLPG1690, reference compound]
